Assay results as given in PubChem BioAssay AID1919004 (Molecular Pharmacology Branch, DTP, NCI, 2023).
pIC50: −log10 of the molar value.

System: 883617-216-R-J1-PDC complex spheroids, growth, % test/control
Experiment: Anticancer human tumor 883617-216-R-J1-PDC patient-derived bladder carcinoma cell line growth inhibition [AhR]
Settings: for pIC50: curve of first compound; for viability, T/C: stronger effect = lower value
Summary of the method: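 Agents were dosed in half-log steps down from roughly clinical Cmax, or from 10 microM where Cmax was unknown, alone and with AhR antagonists. Read-out: percent test/control growth of tumor spheroids containing HUVEC and MSC stromal cells.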

[1] = second compound 0.1 µM, first compound 0.00949 µM
[2] = second compound 0.1 µM, first compound 0.03 µM
[3] = second compound 0.1 µM, first compound 0.0949 µM
[4] = second compound 0.1 µM, first compound 0.3 µM
[5] = second compound 0.316 µM, first compound 0.00949 µM
[6] = second compound 0.316 µM, first compound 0.03 µM
[7] = second compound 0.316 µM, first compound 0.0949 µM
[8] = second compound 0.316 µM, first compound 0.3 µM
[9] = second compound 1 µM, first compound 0.00949 µM
[10] = second compound 1 µM, first compound 0.03 µM
[11] = second compound 1 µM, first compound 0.0949 µM
[12] = second compound 1 µM, first compound 0.3 µM
[13] = second compound 3.16 µM, first compound 0.00949 µM
[14] = second compound 3.16 µM, first compound 0.03 µM
[15] = second compound 3.16 µM, first compound 0.0949 µM
[16] = second compound 3.16 µM, first compound 0.3 µM
[17] = second compound 10 µM, first compound 0.00949 µM
[18] = second compound 10 µM, first compound 0.03 µM
[19] = second compound 10 µM, first compound 0.0949 µM
[20] = second compound 10 µM, first compound 0.3 µM
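Also: exposure lasted 7 days after dosing on day 3 of spheroid growth.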

Structure (SMILES)	pIC50 (second compound 0.1 µM)	pIC50 (second compound 0.316 µM)	pIC50 (second compound 1 µM)	pIC50 (second compound 3.16 µM)	pIC50 (second compound 10 µM)	viability, T/C [1] [%]	viability, T/C [2] [%]	viability, T/C [3] [%]	viability, T/C [4] [%]	viability, T/C [5] [%]	viability, T/C [6] [%]	viability, T/C [7] [%]	viability, T/C [8] [%]	viability, T/C [9] [%]	viability, T/C [10] [%]	viability, T/C [11] [%]	viability, T/C [12] [%]	viability, T/C [13] [%]	viability, T/C [14] [%]	viability, T/C [15] [%]	further results
CC(C)CC(NC(=O)C(Cc1ccccc1)NC(=O)c1cnccn1)B(O)O (stereo not given) + Cc1cncc(-c2nc(NCCc3c[nH]c4ccccc34)c3ncn(C(C)C)c3n2)c1	8.05	8.07	8.13	8.18	8.46	48.1	0.14	0.1	0.23	44.8	0.11	0.06	0.21	38.7	0.1	0.05	0.21	23.6	0.14	0.84	viability, T/C (second compound 0.1 µM, first compound 0.000949 µM): 90.2%; viability, T/C (second compound 0.1 µM, first compound 0.003 µM): 93.5%; viability, T/C (second compound 0.316 µM, first compound 0.000949 µM): 97.4%; viability, T/C (second compound 0.316 µM, first compound 0.003 µM): 96.1%; viability, T/C (second compound 1 µM, first compound 0.000949 µM): 111%; viability, T/C (second compound 1 µM, first compound 0.003 µM): 93.9%; viability, T/C (second compound 3.16 µM, first compound 0.000949 µM): 105%; viability, T/C (second compound 3.16 µM, first compound 0.003 µM): 111%; viability, T/C [16]: 0.2%; viability, T/C (second compound 10 µM, first compound 0.000949 µM): 61.7%; viability, T/C (second compound 10 µM, first compound 0.003 µM): 57.3%; viability, T/C [17]: 0.3%; viability, T/C [18]: 0.24%; viability, T/C [19]: 0.23%; viability, T/C [20]: 0.62%
O=C(C=Cn1cnc(-c2cc(C(F)(F)F)cc(C(F)(F)F)c2)n1)NNc1cnccn1 + Cc1ccccc1N=Nc1ccc(NC(=O)c2ccnn2C)c(C)c1	6.35	6.35	6.27	6.56	6.57	76.4	79.8	61.7	54.5	72	62.8	60.8	49.8	70.5	66.9	58	44.7	64.1	63.6	56.2	viability, T/C (second compound 0.1 µM, first compound 0.949 µM): 43.7%; viability, T/C (second compound 0.1 µM, first compound 3 µM): 34.4%; viability, T/C (second compound 0.316 µM, first compound 0.949 µM): 48.6%; viability, T/C (second compound 0.316 µM, first compound 3 µM): 36.7%; viability, T/C (second compound 1 µM, first compound 0.949 µM): 57.1%; viability, T/C (second compound 1 µM, first compound 3 µM): 40.3%; viability, T/C [16]: 46.3%; viability, T/C (second compound 3.16 µM, first compound 0.949 µM): 44.5%; viability, T/C (second compound 3.16 µM, first compound 3 µM): 35.4%; viability, T/C [17]: 65.5%; viability, T/C [18]: 59.7%; viability, T/C [19]: 52.5%; viability, T/C [20]: 51%; viability, T/C (second compound 10 µM, first compound 0.949 µM): 45.4%; viability, T/C (second compound 10 µM, first compound 3 µM): 39%
